How the values were obtained:
Assay type in all cases: in vivo
[1] = tested on: Housefly [Musca domestica]; assay: Housefly contact mortality in dishes (HF), 48 hours; conditions: μg of test compound per 25 female flies
In short: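 Residual contact test: acetone dilution, 0.01% peanut oil spreader, solvent evaporated; 25 ♀ flies (1-2 d old) per cage; sugar-water plug; 48 h mortality read. LC50 in μg/25 female flies, from dose-mortality curves; top dose 100 μg/25 flies.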

[2] = tested on: Cabbage Looper [Trichoplusia ni (Hubner)]; assay: Cabbage looper leaf dip (CL), 3-5 days; conditions: percent in solution, second-instar larvae
In short: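 Leaf dip, squash cotyledons, 50-50 acetone-water, top dose 0.1% and lower. 5 second-instar larvae/dish, moist filter paper, high-humidity chamber. Mortality at 3-5 d; LC50 (% in solution) from dosage-mortality curves.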

[3] = tested on: Black Bean Aphid [Aphis fabae (Scop.)]; assay: Black bean aphid spray test on nasturtium (BBA), 48 hours; conditions: percent of test compound in sprayed solution
In short: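 LC50, given as percent test compound in the sprayed liquid, was calculated from dosage-mortality curves using concentrations from 0.05% downward. Sprays in 50:50 acetone-water went to runoff on ~5 cm nasturtiums carrying 25-50 aphids of mixed ages, one day after infestation. Deaths were counted 48 h later under greenhouse conditions.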

[4] = tested on: Tobacco Budworm [Heliothis virescens (Fabricius)] eggs; assay: Tobacco budworm eggs (TBW-E); conditions: percent in solution; 2-day old eggs
In short: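 LC50 values (percent test compound in the dip solution) were calculated from dosage-mortality curves. Egg patches, 2 days old, were dipped in acetone solutions at concentrations from 0.1% downward and held at 78° F on rearing medium until control larvae hatched and fed.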

[5] = tested on: Aster Leafhopper [Macrosteles fascifrens (Stal)]; assay: Aster leafhopper on dipped oat seedlings (LH), 48 hours; conditions: percent in solution, adults/nymphs
In short: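 Three ~10 cm oat seedlings per cup were dipped 2-3 seconds in 50-50 acetone-water compound solutions, dried, and caged with ten adult/nymph leafhoppers. Mortality was counted after 48 hours at concentrations from 0.05% downward. LC50, as percent compound in solution, came from dosage-mortality curves.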

[6] = tested on: Beet Armyworm (Spodoptera exigua); assay: Beet armyworm leaf dip (BAW), 5 days; conditions: percent in solution; second-instar larvae; five days
Procedure: (§1) The compounds in Tables 1 and 2 above were tested for insecticidal activity using the following testing procedures. LC50 values, based on the results of these tests and calculated according to dosage-mortality curves, are expressed in Table 3.
Beet Armyworm (Spodoptera exigua):
Test compounds were diluted in a 50-50 acetone-water solution. Young leaves of sugar beets (Beta vulgaris) were immersed in the test solutions for 2-3 seconds and placed on a wire screen to dry. The dried leaves were placed in petri dishes containing a moistened filter paper and infested with five second-instar beet armyworm larvae. The dishes were placed in a high humidity chamber. Mortality of the larvae was recorded five days later. Test concentrations ranged from 0.1% downward. The LC-50 values are expressed below in Table 3 under the heading "BAW" in terms of percent of the test compound in solution.

[7] = tested on: Maize weevil [Sitophilus zeamais (Motschulsky)]; assay: Maize weevil on dipped corn seeds (MW), 48 hours; conditions: percent in solution, adult weevils
In short: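 LC50, given as percent of compound in dipping solution, comes from dosage-mortality curves over concentrations descending from 0.01%. Four corn seeds soaked 2-3 s in 50:50 acetone:water solution were dried and held with 10 adult weevils, about 25° C, mortality read after 48 h.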

[8] = tested on: Tobacco Budworm [Heliothis virescens (Fabricius)] larvae; assay: Tobacco budworm larvae, contact (TBW-C), 5 days; conditions: percent in solution, second-instar larvae
Procedure: as §1
Tobacco Budworm [Heliothis virescens (Fabricius)]:
(a) Contact: Test compounds were diluted in a 50-50 acetone-water solution. Cotton (Gossypium sp.) cotyledons were immersed in the test solutions for 2-3 seconds and placed on a wire screen to dry. The dried leaves were placed in petri dishes containing a moistened piece of filter paper and infested with 5 second-instar tobacco budworm larvae. The dishes were placed in a high humidity chamber for 5 days, and percent mortality of the larvae recorded. Test concentrations ranged from 0.1% downward. The LC-50 values are expressed below in Table 3 under the heading "TBW-C" in terms of percent of the test compound in the solution.

## CC(C)C(=Nc1cccc(Cl)c1)OCc1cccc(Oc2ccccc2)c1 [Compound 7]
[1]
  LC50 HF: 8 µg
[2]
  LC50 CL: 0.006%
[3]
  LC50 BBA: 0.0003%
[4]
  LC50 TBW E (eggs): 0.009%
[5]
  LC50 LH: 0.0002%
[6]
  LC50 BAW: 0.006%

## CC(C)C(=Nc1ccc(Cl)c(Cl)c1)OCc1cccc(Oc2ccccc2)c1 [Compound 14]
[1]
  LC50 HF: 40 µg
[2]
  LC50 CL: 0.004%
[3]
  LC50 BBA: 0.0003%
[5]
  LC50 LH: 0.001%
[6]
  LC50 BAW: 0.005%
[7]
  LC50 MW: 0.01%

## CC(C)C(=Nc1ccc(Cl)cc1)OCc1ccc(F)c(Oc2ccccc2)c1 [Compound 23]
[1]
  LC50 HF: 5 µg
[2]
  LC50 CL: 0.0005%
[3]
  LC50 BBA: 0.001%
[4]
  LC50 TBW E (eggs): 0.017%
[6]
  LC50 BAW: 0.001%

## Clc1ccc(N=C(OCc2cccc(Oc3ccccc3)c2)C2CC2)cc1 [Compound 32]
[1]
  LC50 HF: 37 µg
[2]
  LC50 CL: 0.003%
[3]
  LC50 BBA: 0.003%
[5]
  LC50 LH: > 0.05%
[6]
  LC50 BAW: 0.03%
[7]
  LC50 MW: > 0.01%

## Clc1ccccc1N=C(OCc1cccc(Oc2ccccc2)c1)C(Cl)Cl [Compound 34]
[1]
  LC50 HF: > 100 µg
[8]
  LC50 TBW C (contact): 0.01%
[2]
  LC50 CL: 0.015%
[3]
  LC50 BBA: > 0.05%
[4]
  LC50 TBW E (eggs): > 0.1%
[6]
  LC50 BAW: 0.015%

## Fc1ccc(N=C(OCc2cccc(Oc3ccccc3)c2)C2CC2)cc1 [Compound 45]
[1]
  LC50 HF: 30 µg
[2]
  LC50 CL: 0.03%
[3]
  LC50 BBA: 0.03%
[5]
  LC50 LH: > 0.05%
[6]
  LC50 BAW: 0.1%

## CC(C)C(=Nc1ccc(F)cc1)OCc1cccc(Oc2ccccc2)c1 [Compound 46]
[1]
  LC50 HF: 7 µg
[2]
  LC50 CL: 0.003%
[3]
  LC50 BBA: 0.003%
[4]
  LC50 TBW E (eggs): 0.016%
[5]
  LC50 LH: 0.002%
[6]
  LC50 BAW: 0.006%

## CC(C)C(=Nc1ccc(F)cc1)OCc1ccc(F)c(Oc2ccccc2)c1 [Compound 53]
[1]
  LC50 HF: 2 µg
[8]
  LC50 TBW C (contact): 0.0025%
[2]
  LC50 CL: 0.0005%
[3]
  LC50 BBA: 0.001%
[4]
  LC50 TBW E (eggs): 0.02%
[6]
  LC50 BAW: 0.003%

## FC(F)(F)c1ccc(N=C(OCc2cccc(Oc3ccccc3)c2)C2CC2)cc1 [Compound 62]
[1]
  LC50 HF: 20 µg
[2]
  LC50 CL: 0.005%
[3]
  LC50 BBA: 0.001%
[5]
  LC50 LH: > 0.05%
[6]
  LC50 BAW: 0.02%
[7]
  LC50 MW: > 0.01%

## FC(F)(F)Oc1ccc(N=C(OCc2cccc(Oc3ccccc3)c2)C2CC2)cc1 [Compound 63]
[1]
  LC50 HF: 30 µg
[2]
  LC50 CL: 0.005%
[3]
  LC50 BBA: 0.0003%
[5]
  LC50 LH: 0.0001%
[6]
  LC50 BAW: 0.005%
[7]
  LC50 MW: > 0.01%

## FC(F)(F)c1ccc(N=C(OCc2cccc(Oc3ccccc3)c2)C2CC2)c(Cl)c1 [Compound 65]
[1]
  LC50 HF: > 100 µg
[2]
  LC50 CL: < 0.01%
[3]
  LC50 BBA: > 0.05%
[5]
  LC50 LH: > 0.05%
[6]
  LC50 BAW: > 0.1%

## CC(C)C(=Nc1cccc(C(F)(F)F)c1)OCc1cccc(Oc2ccccc2)c1 [Compound 67]
[1]
  LC50 HF: 15 µg
[2]
  LC50 CL: 0.001%
[3]
  LC50 BBA: 0.0002%
[4]
  LC50 TBW E (eggs): 0.01%
[5]
  LC50 LH: 0.00027%
[6]
  LC50 BAW: 0.006%

## Cc1c(Cl)cccc1N=C(OCc1cccc(Oc2ccccc2)c1)C(Cl)Cl [Compound 97]
[1]
  LC50 HF: 10 µg
[8]
  LC50 TBW C (contact): 0.004%
[2]
  LC50 CL: 0.002%
[3]
  LC50 BBA: 0.001%
[4]
  LC50 TBW E (eggs): 0.04%
[6]
  LC50 BAW: 0.01%

## CCC(C)C(=Nc1ccc(F)c(Cl)c1)OCc1cccc(Oc2ccccc2)c1 (stereo not drawn) [Compound 122]
[1]
  LC50 HF: 37 µg
[2]
  LC50 CL: 0.0007%
[3]
  LC50 BBA: > 0.05%
[4]
  LC50 TBW E (eggs): 0.05%
[5]
  LC50 LH: > 0.05%
[6]
  LC50 BAW: 0.01%
[7]
  LC50 MW: > 0.01%

## Cc1ccc(N=C(OCc2cccc(Oc3ccccc3)c2)C(Cl)Cl)cc1 [Compound 139]
[1]
  LC50 HF: 4.2 µg
[8]
  LC50 TBW C (contact): 0.005%
[2]
  LC50 CL: 0.015%
[3]
  LC50 BBA: 0.001%
[4]
  LC50 TBW E (eggs): 0.05%
[6]
  LC50 BAW: 0.007%

## O=[N+]([O-])c1ccc(N=C(OCc2cccc(Oc3ccccc3)c2)C(Cl)Cl)cc1 [Compound 173]
[1]
  LC50 HF: 18 µg
[8]
  LC50 TBW C (contact): > 0.1%
[2]
  LC50 CL: 0.02%
[3]
  LC50 BBA: > 0.05%
[4]
  LC50 TBW E (eggs): > 0.1%
[6]
  LC50 BAW: > 0.1%

## O=[N+]([O-])c1cccc(N=C(OCc2cccc(Oc3ccccc3)c2)C(Cl)Cl)c1 [Compound 174]
[1]
  LC50 HF: 17 µg
[2]
  LC50 CL: 0.03%
[3]
  LC50 BBA: 0.05%
[4]
  LC50 TBW E (eggs): > 0.1%
[6]
  LC50 BAW: 0.1%

## CC(C)C(=Nc1ccc(F)c(I)c1)OCc1ccc(F)c(Oc2ccc(Cl)cc2)c1 [Compound 326]
[1]
  LC50 HF: 25 µg
[8]
  LC50 TBW C (contact): 0.0005%
[2]
  LC50 CL: 0.00015%
[3]
  LC50 BBA: > 0.05%
[4]
  LC50 TBW E (eggs): 0.03%
[6]
  LC50 BAW: 0.004%

## CC(C)C(=Nc1ccc(F)c(Cl)c1F)OCc1cccc(Oc2ccccc2)c1 [Compound 332]
[1]
  LC50 HF: 7 µg
[8]
  LC50 TBW C (contact): 0.00075%
[2]
  LC50 CL: 0.00045%
[3]
  LC50 BBA: > 0.05%
[4]
  LC50 TBW E (eggs): 0.015%
[6]
  LC50 BAW: 0.0012%

## CC(C)C(=Nc1ccc(F)c(Cl)c1)OCc1cccc(Oc2ccc(Cl)cc2)n1 [Compound 463]
[1]
  LC50 HF: 8 µg
[2]
  LC50 CL: 0.00009%
[3]
  LC50 BBA: 0.05%
[4]
  LC50 TBW E (eggs): 0.0075%
[5]
  LC50 LH: 0.0003%
[6]
  LC50 BAW: 0.0024%
[7]
  LC50 MW: 0.01%

## CC(C)C(=Nc1ccc(F)c(Cl)c1F)OCc1cccc(Oc2ccc(Cl)cc2)n1 [Compound 500]
[1]
  LC50 HF: 16 µg
[8]
  LC50 TBW C (contact): 0.00075%
[2]
  LC50 CL: 0.00009%
[3]
  LC50 BBA: > 0.05%
[4]
  LC50 TBW E (eggs): 0.02%
[6]
  LC50 BAW: 0.002%

## C#CCc1c(F)c(F)c(COC(=Nc2ccc(F)c(Cl)c2)C(C)C)c(F)c1F [Compound 520]
[1]
  LC50 HF: 5.5 µg
[8]
  LC50 TBW C (contact): 0.00075%
[2]
  LC50 CL: > 0.1%
[3]
  LC50 BBA: 0.0002%
[4]
  LC50 TBW E (eggs): > 0.1%
[5]
  LC50 LH: 0.0003%
[7]
  LC50 MW: 0.0042%

## CC(C)C(=Nc1ccc(F)c(Cl)c1F)OCc1cccc(Oc2ccc(F)cc2)n1 [Compound 521]
[1]
  LC50 HF: 7.5 µg
[8]
  LC50 TBW C (contact): 0.0005%
[2]
  LC50 CL: 0.00005%
[3]
  LC50 BBA: 0.0008%
[4]
  LC50 TBW E (eggs): > 0.1%
[5]
  LC50 LH: 0.05%
[7]
  LC50 MW: 0.01%

## CC(C)C(=Nc1ccc(Cl)c(Cl)c1)OCc1cccc(Oc2ccc(Cl)cc2)n1 [Compound 523]
[1]
  LC50 HF: 22 µg
[8]
  LC50 TBW C (contact): 0.0002%
[2]
  LC50 CL: 0.00015%
[3]
  LC50 BBA: 0.001%
[4]
  LC50 TBW E (eggs): > 0.1%
[5]
  LC50 LH: > 0.05%
[7]
  LC50 MW: > 0.01%

## CC(C)C(=Nc1ccc(C(F)(F)F)cc1)OCc1cccc(Oc2ccc(Cl)cc2)n1 [Compound 530]
[1]
  LC50 HF: 9.8 µg
[8]
  LC50 TBW C (contact): 0.00005%
[2]
  LC50 CL: 0.00027%
[3]
  LC50 BBA: 0.0003%
[4]
  LC50 TBW E (eggs): 0.005%
[5]
  LC50 LH: 0.05%
[7]
  LC50 MW: > 0.01%

## CC(C)C(=Nc1ccc(F)c(Cl)c1)OCc1cccc(Oc2ccc(F)c(F)c2)n1 [Compound 531]
[1]
  LC50 HF: 5 µg
[8]
  LC50 TBW C (contact): 0.00037%
[2]
  LC50 CL: > 0.1%
[3]
  LC50 BBA: > 0.05%
[4]
  LC50 TBW E (eggs): > 0.1%
[5]
  LC50 LH: > 0.05%
[7]
  LC50 MW: > 0.01%
